Reference: patent US20260217767A1, “NOVEL A4B7 THIOETHER PEPTIDE DIMER ANTAGONISTS” (Protagonist Therapeutics, Inc., priority 2014, published 2026)
*1 amine or outer side, *2 acyl side, *3 side chain or, on linkers, in order; H or OH if unused. Where a SMILES comes first, the peptide text is derived from it. Bridges are numbered along the chain shown (N, C = ends). [ ]: non-standard residue; d: D form. Phe(4-tBu) = CC(C)(C)c1ccc(C[C@H](N)C(=O)O)cc1; Bip = N[C@@H](Cc1ccc(-c2ccccc2)cc1)C(=O)O; NMeR = CN[C@@H](CCCNC(=N)N)C(=O)O; β3hE = N[C@@H](CCC(=O)O)CC(=O)O; X1 = O=C(c1ccccc1C[*:2])[*:1]; Pen = CC(C)(S)[C@H](N)C(=O)O

Assay: Simulated Intestinal Fluid (SIF) Stability Assay
Assay type: in vitro ADME
Settings: pig, porcine pancreatin, 37° C.; monomers, Table 6
In short: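 Percent peptide remaining over time was measured by LC-MS/MS as the peak-area ratio to internal standard, and a first-order decay fit gave half-life. Digests contained 22 μM peptide and 1% pancreatin in pH 6.5 FaSSIF buffer at 37° C. Aliquots were quenched in organic solvent with formic acid.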

Compound	half-life
CC(C)C[C@@H]1NC(=O)[C@H]([C@@H](C)O)NC(=O)[C@H](CC(=O)O)NC(=O)[C@H](CO)NC(=O)[C@H](CCCNC(=N)N)N(C)C(=O)c2ccccc2CSC(C)(C)[C@@H](C(=O)N[C@@H](Cc2c[nH]c3ccccc23)C(=O)N[C@H](CCC(=O)O)C(=O)N[C@@H](CN)C(N)=O)NC1=O [compound 94] (HELM PEPTIDE1{[meR].S.D.T.L.[Pen].W.[dE].[NC[C@H](N[*:1])C(=O)[*:2]].[am]}|CHEM1{[O=C(c1ccccc1C[*:2])[*:1]]}$PEPTIDE1,CHEM1,1:R1-1:R1|PEPTIDE1,CHEM1,6:R3-1:R2$$$V2.0)	> 3 h
CC(C)C[C@@H]1NC(=O)[C@H]([C@@H](C)O)NC(=O)[C@H](CC(=O)O)NC(=O)[C@H](CO)NC(=O)[C@H](CCCNC(=N)N)N(C)C(=O)c2ccccc2CSC(C)(C)[C@@H](C(=O)N[C@@H](Cc2c[nH]c3ccccc23)C(=O)N[C@H](CCC(=O)O)C(=O)N[C@@H](CCN)C(N)=O)NC1=O [compound 95] (HELM PEPTIDE1{[meR].S.D.T.L.[Pen].W.[dE].[Dab].[am]}|CHEM1{[O=C(c1ccccc1C[*:2])[*:1]]}$PEPTIDE1,CHEM1,1:R1-1:R1|PEPTIDE1,CHEM1,6:R3-1:R2$$$V2.0)	> 3 h

Same assay, conditions: pig, simulated intestinal fluid (SIF) with 1% porcine pancreatin, pH 6.5, porcine pancreatin, 37° C.; monomers, Table 6

Compound	half-life at 22 μM
CC(C)C[C@@H]1NC(=O)[C@H]([C@@H](C)O)NC(=O)[C@H](CC(=O)O)NC(=O)[C@H](CO)NC(=O)[C@H](CCCNC(=N)N)N(C)C(=O)c2ccccc2CSC(C)(C)[C@@H](C(=O)N[C@@H](Cc2cccc3ccccc23)C(=O)N[C@H](CCC(=O)O)C(=O)N(C)[C@@H](CCCCN)C(N)=O)NC1=O [compound 69] (HELM PEPTIDE1{[meR].S.D.T.L.[Pen].[O=C([C@H](Cc1cccc2ccccc12)N[*:1])[*:2]].[dE].[meK].[am]}|CHEM1{[O=C(c1ccccc1C[*:2])[*:1]]}$PEPTIDE1,CHEM1,1:R1-1:R1|PEPTIDE1,CHEM1,6:R3-1:R2$$$V2.0)	> 3 h
CC(C)C[C@@H]1NC(=O)[C@H]([C@@H](C)O)NC(=O)[C@H](CC(=O)O)NC(=O)[C@H](CO)NC(=O)[C@H](CCCNC(=N)N)N(C)C(=O)c2ccccc2CSC(C)(C)[C@@H](C(=O)N[C@@H](Cc2c[nH]c3ccccc23)C(=O)N[C@@H](CCC(=O)O)C(N)=O)NC1=O [compound 96] (HELM PEPTIDE1{[meR].S.D.T.L.[Pen].W.E.[am]}|CHEM1{[O=C(c1ccccc1C[*:2])[*:1]]}$PEPTIDE1,CHEM1,1:R1-1:R1|PEPTIDE1,CHEM1,6:R3-1:R2$$$V2.0)	0.433 h
CC(C)C[C@@H]1NC(=O)[C@H]([C@@H](C)O)NC(=O)[C@H](CC(=O)O)NC(=O)[C@H](CO)NC(=O)[C@H](CCCNC(=N)N)N(C)C(=O)c2ccccc2CSC(C)(C)[C@@H](C(=O)N[C@@H](Cc2ccc(-c3ccccc3)cc2)C(=O)N[C@@H](CCC(=O)O)CC(N)=O)NC1=O [compound 133] ([NMeR]SDTL[Pen][Bip][β3hE]-NH2; linker N-6 via X1)	> 3 h
CC(C)C[C@@H]1NC(=O)[C@H]([C@@H](C)O)NC(=O)[C@H](CC(=O)O)NC(=O)[C@H](CO)NC(=O)[C@H](CCCNC(=N)N)N(C)C(=O)c2ccccc2CSC(C)(C)[C@@H](C(=O)N[C@@H](Cc2ccc(C(C)(C)C)cc2)C(=O)N[C@@H](CCC(=O)O)CC(N)=O)NC1=O [compound 134] ([NMeR]SDTL[Pen][Phe(4-tBu)][β3hE]-NH2; linker N-6 via X1)	> 3 h
